Test results: PubChem BioAssay (NCI)
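Five compound concentrations were applied to cells in 96-well plates for 48 hours; endpoints were derived by simple linear interpolation of the resulting dose-response curve. The concentration for full growth arrest is given as TGI.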

Assays:
Assay in all cases: NCI tumour cell line growth inhibition, 48 h
NCI-H226 lung = system: NCI-H226 lung
SK-OV-3 ovarian = system: SK-OV-3 ovarian
TK-10 renal = system: TK-10 renal
COLO 205 colon = system: COLO 205 colon
SF-295 CNS = system: SF-295 CNS
SN12C renal = system: SN12C renal
NCI-H460 lung = system: NCI-H460 lung
MALME-3M melanoma = system: MALME-3M melanoma
HOP-62 NSCLC = system: HOP-62 NSCLC
K-562 leukemia = system: K-562 leukemia
M14 melanoma = system: M14 melanoma
MDA-MB-435 = system: MDA-MB-435
MDA-N = system: MDA-N
DU-145 prostate = system: DU-145 prostate
OVCAR-8 ovarian = system: OVCAR-8 ovarian
RPMI-8226 leukemia = system: RPMI-8226 leukemia
HCT-15 colon = system: HCT-15 colon
EKVX NSCLC = system: EKVX NSCLC
MOLT-4 leukemia = system: MOLT-4 leukemia
LOX IMVI melanoma = system: LOX IMVI melanoma

SMILES | TGI (NCI-H226 lung) [µM] | TGI (SK-OV-3 ovarian) [µM] | TGI (TK-10 renal) [µM] | TGI (COLO 205 colon) [µM] | TGI (SF-295 CNS) [µM] | TGI (SN12C renal) [µM] | TGI (NCI-H460 lung) [µM] | TGI (MALME-3M melanoma) [µM] | TGI (HOP-62 NSCLC) [µM] | TGI (K-562 leukemia) [µM] | TGI (M14 melanoma) [µM] | TGI (MDA-MB-435) [µM] | TGI (MDA-N) [µM] | TGI (DU-145 prostate) [µM] | TGI (OVCAR-8 ovarian) [µM] | TGI (RPMI-8226 leukemia) [µM] | TGI (HCT-15 colon) [µM] | TGI (EKVX NSCLC) [µM] | TGI (MOLT-4 leukemia) [µM] | TGI (LOX IMVI melanoma) [µM]
COc1ccccc1CCN1CCN(CCCc2ccccc2)CC1 | > 100 | > 100 | > 100 | 76 | > 100 | > 100 | > 100 | > 100 | > 100 | > 100 | 76.4 | > 100 | > 100 | > 100 | > 100 | > 100 | > 100 | > 100 | > 100 | > 100
C=C1C[C@@H]2CC[C@@]34CC5O[C@H]6C(O[C@H]7CC[C@H](CC(=O)O[C@@H]8[C@@H](C)[C@@H]9O[C@@H]%10C[C@]%11(C[C@@H]%12O[C@]%13(C[C@H](C)[C@@H]%14O[C@@H]%15CC(C(O)CO)O[C@@H]%15C[C@@H]%14O%13)C[C@H](C)[C@@H]%12O%11)O[C@@H]%10C[C@@H]9O[C@H]8CC8O[C@@H](CC[C@@H]1O2)C[C@@H](C)C8(O)CO)O[C@@H]7[C@@H]6O3)[C@H]5O4 (stereo not given in full) | > 1 | > 1 | > 1 | > 1 | > 1 | > 1 | > 1 | > 1 | > 1 | > 1 | > 1 | > 1 | > 1 | > 1 | > 1 | > 1 | > 1 | > 1 | > 1 | > 1
CCCCS(=O)(=O)CCC(N)P(=O)(O)O (stereo not given) | > 100 | > 100 | > 100 | > 100 | > 100 | > 100 | > 100 | > 100 | > 100 | > 100 | > 100 | > 100 | > 100 | > 100 | > 100 | > 100 | > 100 | > 100 | > 100 | > 100
COc1cccc2c1C(=O)C1=C(C2=O)C(O)CC(C)(C)O1 (stereo not given) | > 100 | > 100 | > 100 | 54 | > 100 | > 100 | > 100 | 33.7 | > 100 | 50.3 | > 100 | 35.2 | 36 | > 100 | 91.5 | 60.4 | > 100 | > 100 | 82.6 | 57.3
NC(=O)c1ccc(C(=O)Nc2ccc([As](=O)(O)O)cc2)cc1 | > 100 | > 100 | > 100 | > 100 | > 100 | > 100 | > 100 | > 100 | > 100 | > 100 | > 100 | > 100 | > 100 | > 100 | > 100 | > 100 | > 100 | > 100 | > 100 | > 100
O=C1NC(N/N=C/C(O)C(O)C(O)C(O)CO)=N/C1=C\c1ccco1 (stereo not given) | > 100 | > 100 | > 100 | > 100 | > 100 | > 100 | > 100 | > 100 | > 100 | > 100 | > 100 | > 100 | > 100 | > 100 | > 100 | > 100 | > 100 | > 100 | > 100 | > 100
COc1ccc(N2CN3OC(=O)N(c4ccc(OC)cc4)[C@@]3(c3ccccc3)C2)cc1 | > 100 | > 100 | > 100 | 80.1 | 92.9 | > 100 | > 100 | > 100 | > 100 | > 100 | > 100 | 7.12 | 22.6 | > 100 | > 100 | > 100 | > 100 | > 100 | > 100 | > 100
CN(C)CCCN1c2ccc([N+](=O)[O-])cc2CCc2cccc([N+](=O)[O-])c21 | 29.3 | 30.8 | 23.2 | 28.6 | 28.2 | 28.6 | 29.2 | 28 | 27 | 52 | 28 | 27.7 | 29.2 | 31.2 | 32.3 | 98.7 | 30.5 | 39.1 | 51.5 | 31.8
CN(CC(=O)N1CC(CCl)c2ccc([N+](=O)[O-])cc21)CC(=O)N1CC(CCl)c2ccc([N+](=O)[O-])cc21 (stereo not given) | > 100 | > 100 | > 100 | > 100 | > 100 | > 100 | > 100 | > 100 | > 100 | > 100 | > 100 | > 100 | > 100 | > 100 | > 100 | > 100 | > 100 | > 100 | > 100 | > 100
